This is an account of results in PubChem BioAssay (NCI).

Among the test systems are A498 renal; EKVX NSCLC; HCT-15 colon; HOP-92 NSCLC; MALME-3M melanoma; MDA-N; NCI-H226 lung; NCI-H23 lung; SNB-75 CNS; U251 CNS; HCC-2998 colon.
Test in all cases: inhibition of tumour cell growth, NCI panel, 48 h

Structures are written as SMILES.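 Interpolation was linear, between the two tested concentrations surrounding the appropriate level; five concentrations were tested over 48 hours in 96-well plates. TGI is the concentration that stops growth completely.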

`CN(CC(=O)O)c1ncc2c(n1)-c1ccccc1CC2`: the TGI in the experiment on A498 renal, in the experiment with EKVX NSCLC, with HCT-15 colon, in the experiment on HOP-92 NSCLC, in the experiment with MALME-3M melanoma and in the experiment on MDA-N was above 100 µM throughout. Moreover, the TGI in the experiment on NCI-H226 lung, with NCI-H23 lung, in the experiment on SNB-75 CNS and in the experiment with U251 CNS was above 100 µM each time.

In the case of `Cc1c(-c2ccccc2)oc(=O)c2ccccc12`, the TGI in the experiment with EKVX NSCLC was 60.9 µM; in the experiment on HCC-2998 colon, 37.8 µM; with HCT-15 colon it was 54.2 µM; in the experiment with HOP-92 NSCLC, 38 µM; with MALME-3M melanoma, 52.8 µM; in the experiment with MDA-N, 59.3 µM. In addition, the TGI in the experiment with NCI-H226 lung worked out at 40.3 µM; with NCI-H23 lung, 56.6 µM; in the experiment on SNB-75 CNS, 31.1 µM; in the experiment with U251 CNS, 42.2 µM.

`CCOC(=O)CCC(C(=O)OCC)n1nnc2cc(Nc3c(C)[n+]([O-])c4cc(Cl)ccc4[n+]3[O-])ccc21` (configuration not stated): the TGI in the experiment with A498 renal was above 100 µM; in the experiment with EKVX NSCLC, 71.9 µM; in the experiment with HCT-15 colon it was above 100 µM; in the experiment on HOP-92 NSCLC, above 100 µM; with MALME-3M melanoma, above 100 µM; in the experiment with MDA-N, above 100 µM. Besides, the TGI in the experiment on NCI-H226 lung, in the experiment on NCI-H23 lung, in the experiment with SNB-75 CNS and in the experiment on U251 CNS was above 100 µM throughout.

For the compound `CC1=NN(C(=O)CC(=O)Nc2cccc(C)c2)C(=O)C1N=Nc1ccc(C(=O)O)cc1` (configuration not stated), the TGI with A498 renal, with EKVX NSCLC, with HCC-2998 colon, in the experiment with HCT-15 colon, in the experiment on HOP-92 NSCLC and in the experiment on MALME-3M melanoma was above 100 µM in each case. Besides, the TGI in the experiment with MDA-N, in the experiment with NCI-H23 lung, in the experiment on SNB-75 CNS and with U251 CNS was above 100 µM in each case.

Consider `CCOC(=O)CC1C(C(=O)OCC)=Cn2c([nH]c3cccc4cccc2c43)=C1C(=O)OCC` (configuration not stated), for which the TGI in the experiment on A498 renal, in the experiment on EKVX NSCLC, in the experiment with HCC-2998 colon, in the experiment on HCT-15 colon, with HOP-92 NSCLC and in the experiment with MDA-N was above 100 µM in each case. Moreover, the TGI in the experiment on NCI-H226 lung, with NCI-H23 lung, with SNB-75 CNS and in the experiment on U251 CNS was above 100 µM throughout.

Consider `N#Cc1cc2c(n(C3OC(CO)C(O)C(O)C3O)c1=S)CCC2` (configuration not stated), for which the TGI in the experiment on A498 renal, with HCC-2998 colon, in the experiment on HCT-15 colon, in the experiment with HOP-92 NSCLC, in the experiment with MALME-3M melanoma and in the experiment with MDA-N was above 100 µM throughout. Besides, the TGI in the experiment with NCI-H226 lung, in the experiment on NCI-H23 lung, with SNB-75 CNS and with U251 CNS was above 100 µM each time.

On to `COc1ccccc1-c1cc(=O)c2cccnc2[nH]1`, for which the TGI is above 100 µM in the experiment on A498 renal; above 100 µM with EKVX NSCLC; above 100 µM with HCC-2998 colon; above 100 µM in the experiment on HCT-15 colon; 60.2 µM in the experiment with HOP-92 NSCLC; above 100 µM in the experiment on MALME-3M melanoma. Besides, the TGI in the experiment with MDA-N was 56.7 µM; in the experiment on NCI-H226 lung it was above 100 µM; in the experiment with NCI-H23 lung, above 100 µM; with U251 CNS it was above 100 µM.

`C=C(C)C1CCC2(C)C1CCC1(C)C2CCC2C3(C)C4OC(OC4=O)C(C)(C)C3CCC21C` (configuration not stated): the TGI with A498 renal, in the experiment with EKVX NSCLC, in the experiment on HCC-2998 colon, in the experiment with HCT-15 colon, in the experiment on HOP-92 NSCLC and with MDA-N was above 100 µM each time. Moreover, the TGI with NCI-H226 lung, with NCI-H23 lung, in the experiment on SNB-75 CNS and in the experiment on U251 CNS was above 100 µM throughout.

Turning to `CC(C)(C)c1cc(C(C)(C)C)c2sc(=O)oc2c1O`, the TGI with A498 renal is 27.3 µM; in the experiment with EKVX NSCLC, 29.2 µM; in the experiment on HCT-15 colon, 25.3 µM; in the experiment with HOP-92 NSCLC, 30.8 µM; in the experiment with MALME-3M melanoma, 30.2 µM; with MDA-N it was 29.9 µM. Further, the TGI in the experiment with NCI-H226 lung turned out to be 36.2 µM; in the experiment with SNB-75 CNS, 27.1 µM; with U251 CNS it was 27.8 µM.

As to `CC1(c2ccc(Cl)cc2)c2ccccc2C(=O)N1CCCN1C(=O)c2ccccc2C1=O` (configuration not stated), the TGI in the experiment on A498 renal was above 100 µM; with EKVX NSCLC it was 7.25 µM; with HCT-15 colon it was above 100 µM; in the experiment with HOP-92 NSCLC, above 100 µM; in the experiment with MDA-N it was above 100 µM; in the experiment with NCI-H226 lung it was 63.4 µM. Further, the TGI in the experiment with NCI-H23 lung was 97.9 µM; in the experiment with SNB-75 CNS it was above 100 µM; with U251 CNS it was above 100 µM.

As for `COc1ccc(C=C2C(C)=NN(c3cccc(Cl)c3)C23C(Cl)C(=O)N3c2nc3ccccc3s2)cc1` (configuration not stated), the TGI with A498 renal was 34.8 µM; with EKVX NSCLC, above 100 µM; with HCC-2998 colon, 7.42 µM; in the experiment on HCT-15 colon, 37.1 µM; in the experiment with HOP-92 NSCLC, 24.6 µM; in the experiment on MDA-N it was 44.6 µM. For the same compound, the TGI in the experiment on NCI-H226 lung came to 79.1 µM; with NCI-H23 lung, 36 µM; in the experiment with U251 CNS, 40.9 µM.

For `FC(F)(Sc1ncccn1)c1nc2ccccc2o1`, the TGI in the experiment with A498 renal, with HCC-2998 colon, in the experiment with HCT-15 colon, with HOP-92 NSCLC, in the experiment with MALME-3M melanoma and in the experiment with MDA-N was above 100 µM in each case. Also, the TGI is above 100 µM in the experiment on NCI-H226 lung, above 100 µM with NCI-H23 lung, 81.2 µM in the experiment on SNB-75 CNS and above 100 µM in the experiment on U251 CNS.

Turning to `N#CC(c1cc(Cl)ncn1)c1nc2cc(C(F)(F)F)ccc2s1` (configuration not stated), the TGI turned out to be 56.2 µM in the experiment on A498 renal; 32.3 µM in the experiment on EKVX NSCLC; 13.6 µM with HCT-15 colon; 5.92 µM with HOP-92 NSCLC; 17.5 µM with MALME-3M melanoma; 15.7 µM in the experiment with MDA-N. Also, the TGI in the experiment on NCI-H226 lung worked out at 92 µM; in the experiment on NCI-H23 lung, 6.97 µM; in the experiment with SNB-75 CNS, 25.4 µM; with U251 CNS, 17.1 µM.
